Measurements: ChEMBL document CHEMBL1201862, “PubChem BioAssay data set” (2004)
One block for each compound: values may come before it. Calls of active or inactive are those of the source.

Experiments:
[1] = biological target: T1, Corticotropin-releasing factor receptor 2/Corticotropin-releasing factor-binding protein (Homo sapiens, UniProt P24387+Q13324); assay: activators of CRF receptor 2 with binding protein – uHTS hits, confirmation (AID 602473); type: functional; settings: read-out: EC50_Mean
T1 sequence (Q13324 whole entry): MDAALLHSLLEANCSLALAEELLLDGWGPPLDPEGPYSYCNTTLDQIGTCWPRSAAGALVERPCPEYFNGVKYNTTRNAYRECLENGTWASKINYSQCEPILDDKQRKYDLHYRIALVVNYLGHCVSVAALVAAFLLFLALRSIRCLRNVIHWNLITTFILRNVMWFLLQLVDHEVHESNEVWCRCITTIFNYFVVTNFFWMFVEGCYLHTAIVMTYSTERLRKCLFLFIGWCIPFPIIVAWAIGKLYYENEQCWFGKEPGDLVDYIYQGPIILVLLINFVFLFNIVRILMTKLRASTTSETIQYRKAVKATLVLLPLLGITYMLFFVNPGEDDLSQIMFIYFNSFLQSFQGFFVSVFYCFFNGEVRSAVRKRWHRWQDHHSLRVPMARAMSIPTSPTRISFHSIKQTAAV
T1 sequence (P24387 whole entry): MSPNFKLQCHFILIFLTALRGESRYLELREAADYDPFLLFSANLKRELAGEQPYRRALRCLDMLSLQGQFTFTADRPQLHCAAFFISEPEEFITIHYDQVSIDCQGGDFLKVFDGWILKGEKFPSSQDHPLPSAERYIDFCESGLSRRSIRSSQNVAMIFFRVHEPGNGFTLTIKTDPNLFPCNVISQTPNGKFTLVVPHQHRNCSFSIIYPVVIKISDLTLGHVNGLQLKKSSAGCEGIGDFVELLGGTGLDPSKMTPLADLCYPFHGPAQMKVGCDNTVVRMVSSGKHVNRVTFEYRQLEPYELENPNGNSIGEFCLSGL

[2] = blockers of CRF-binding protein–CRF-R2 complex – cell-based, uHTS hits, 384-well, dose response (AID 651639); type: functional, Homo sapiens; settings: read-out: IC50_Mean
[3] = biological target: T1, Corticotropin-releasing factor receptor 2/Corticotropin-releasing factor-binding protein; assay: Dose Response confirmation of uHTS hits for small molecule antagonists of the CRF-binding protein and CRF-R2 receptor complex.; type: functional; settings: read-out: IC50_Mean
[4] = biological target: T2, High affinity choline transporter 1 (Homo sapiens, UniProt Q9GZV3); assay: human choline transporter blockers, potency – cell-based, 10-point CRC, membrane potential dye, dose response (AID 588401); type: functional;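 also: membrane potential dye fluorescence of choline-evoked depolarization via CHT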
T2 sequence (Q9GZV3 whole entry): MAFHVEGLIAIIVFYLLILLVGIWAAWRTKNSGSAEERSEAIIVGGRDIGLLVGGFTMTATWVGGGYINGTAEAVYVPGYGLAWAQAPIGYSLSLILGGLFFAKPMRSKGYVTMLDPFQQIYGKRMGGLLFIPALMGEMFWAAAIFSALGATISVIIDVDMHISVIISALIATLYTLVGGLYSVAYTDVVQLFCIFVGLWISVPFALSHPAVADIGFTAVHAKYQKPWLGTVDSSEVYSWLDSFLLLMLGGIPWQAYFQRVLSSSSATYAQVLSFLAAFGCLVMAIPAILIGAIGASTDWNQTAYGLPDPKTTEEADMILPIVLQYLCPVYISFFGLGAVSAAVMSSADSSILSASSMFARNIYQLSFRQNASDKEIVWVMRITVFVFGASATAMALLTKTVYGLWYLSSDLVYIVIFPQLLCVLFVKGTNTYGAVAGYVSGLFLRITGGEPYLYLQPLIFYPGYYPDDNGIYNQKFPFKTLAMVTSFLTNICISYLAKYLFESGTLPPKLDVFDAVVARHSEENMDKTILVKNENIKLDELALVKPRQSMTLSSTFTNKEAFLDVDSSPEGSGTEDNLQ

Fatty acid synthase [5] = biological target: T3, Fatty acid synthase (Homo sapiens, UniProt P49327); assay: inhibition of human FAS-TE enzyme activity – biochemical, kinetic fluorescence intensity, dose response (AID 624326); type: functional;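 also: rate of fluorescence rise from hydrolysis of a fluorogenic O-methyl fluorescein ester substrate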
[6] = biological target: T2, High affinity choline transporter 1; assay: human choline transporter blockers, potency – cell-based, 5-point CRC, membrane potential dye, dose response (AID 504840); type: functional
Fatty acid synthase [7] = biological target: T3, Fatty acid synthase; assay: inhibition of human FAS-TE enzyme activity – biochemical, endpoint fluorescence intensity, uHTS hits, dose response (AID 624327); type: functional;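 also: fluorescence from hydrolysis of an O-methyl fluorescein acyl ester substrate by the enzyme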
[8] = DRD fibroblast viability loss – cell-based, non-viral oncogenic, luminescence, dose response (AID 1934); type: functional; settings: Homo sapiens
BJ [9] = assay: BJ-TERT-LT-ST fibroblast viability loss – cell-based, RAS-independent, luminescence, dose response (AID 1935); type: functional; settings: Homo sapiens;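 also: BJ fibroblasts immortalized with TERT plus LT and ST oncogenes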
[10] = Fluorescence-based cell-based high throughput dose response assay for inhibitors of the interaction of nucleotide-binding oligomerization domain containing 2 (NOD2) and the receptor-interacting serine-threonine kinase 2 (RIPK2).; type: functional; settings: Homo sapiens
BJ [11] = assay: BJ-TERT fibroblast viability loss – cell-based, RAS-independent, luminescence, dose response (AID 1933); type: functional; settings: Homo sapiens
BJ [12] = assay: cells; type: functional, cell-based; settings: Homo sapiens
[13] = biological target: T4, Methionyl-tRNA synthetase, putative (Trypanosoma brucei brucei, UniProt Q38C91); type: functional, Trypanosoma brucei brucei strain 927/4 GUTat10.1
T4 sequence (Q38C91 whole entry): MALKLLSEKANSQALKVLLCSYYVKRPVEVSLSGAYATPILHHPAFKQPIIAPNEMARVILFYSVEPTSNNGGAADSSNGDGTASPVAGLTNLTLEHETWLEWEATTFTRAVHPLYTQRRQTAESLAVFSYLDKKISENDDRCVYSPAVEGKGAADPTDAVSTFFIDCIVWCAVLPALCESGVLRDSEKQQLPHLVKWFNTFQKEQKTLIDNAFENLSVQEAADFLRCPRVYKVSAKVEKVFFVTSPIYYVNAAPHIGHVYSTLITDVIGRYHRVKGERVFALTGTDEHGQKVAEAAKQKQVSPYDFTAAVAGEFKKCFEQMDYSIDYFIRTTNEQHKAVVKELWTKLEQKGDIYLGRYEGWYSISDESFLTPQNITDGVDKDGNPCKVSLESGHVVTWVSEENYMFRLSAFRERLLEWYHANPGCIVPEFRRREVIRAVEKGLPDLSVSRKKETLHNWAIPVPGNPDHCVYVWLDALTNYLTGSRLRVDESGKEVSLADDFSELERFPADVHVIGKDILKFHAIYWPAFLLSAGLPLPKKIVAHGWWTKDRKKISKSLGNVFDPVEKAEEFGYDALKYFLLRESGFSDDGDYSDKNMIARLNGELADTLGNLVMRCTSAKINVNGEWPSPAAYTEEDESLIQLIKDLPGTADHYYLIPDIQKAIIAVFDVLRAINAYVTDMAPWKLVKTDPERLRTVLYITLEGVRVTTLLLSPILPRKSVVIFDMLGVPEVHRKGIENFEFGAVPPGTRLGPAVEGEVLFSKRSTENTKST

[14] = biological target: T4, Methionyl-tRNA synthetase, putative; type: functional, Trypanosoma brucei brucei strain 927/4 GUTat10.1; remark: listed apart in the source
[15] = Counterscreen for inhibitors of Trypanosoma brucei methionyl tRNA synthetase (MetRS): Luminescence-based cell-based high throughput dose response assay to identify compounds that are cytotoxic to Jurkat human T lymphocyte cells.; type: functional
[16] = biological target: T5, Serine/threonine-protein phosphatase (Candida dubliniensis (strain CD36 / CBS 7987 / NCPF 3949 / NRRLY-17841) (Yeast), UniProt B9W6M3); assay: blockers of CaCl2-induced CDRE-lacZ signaling – S. cerevisiae, luminescence, secondary, dose response (AID 2388); type: functional, cell-based;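 also: yeast reporter cells carrying a calcineurin-responsive lacZ construct stimulated with calcium chloride; luminescent beta-galactosidase reporter signal in whole cells rather than isolated phosphatase activity; potency for inhibition where a drop in reporter signal means calcineurin blockade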
T5 sequence (B9W6M3 whole entry): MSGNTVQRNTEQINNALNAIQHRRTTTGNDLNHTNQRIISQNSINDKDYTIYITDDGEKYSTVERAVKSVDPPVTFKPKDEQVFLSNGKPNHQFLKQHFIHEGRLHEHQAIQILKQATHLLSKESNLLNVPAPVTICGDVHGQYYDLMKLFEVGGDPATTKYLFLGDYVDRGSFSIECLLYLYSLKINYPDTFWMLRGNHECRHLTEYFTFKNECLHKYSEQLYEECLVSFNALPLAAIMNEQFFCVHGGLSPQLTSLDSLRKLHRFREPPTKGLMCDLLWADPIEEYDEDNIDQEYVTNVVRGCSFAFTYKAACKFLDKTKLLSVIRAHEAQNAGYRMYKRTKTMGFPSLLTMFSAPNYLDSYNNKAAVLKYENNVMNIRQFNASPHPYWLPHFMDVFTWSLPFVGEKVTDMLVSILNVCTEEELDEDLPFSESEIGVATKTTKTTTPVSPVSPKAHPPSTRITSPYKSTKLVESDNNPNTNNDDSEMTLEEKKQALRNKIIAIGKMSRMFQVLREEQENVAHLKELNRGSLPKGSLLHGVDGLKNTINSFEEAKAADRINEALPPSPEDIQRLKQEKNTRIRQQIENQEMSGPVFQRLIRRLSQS

[17] = Luminescence Cell-Based Dose Retest to Confirm Inhibitors of Cancer Stem Cells. [Related pubchem assays (depositor defined):AID2717, AID2721]; type: functional; settings: Homo sapiens
[18] = NIH-3T3 fibroblast cytotoxicity, dose response, cytotoxicity control, cell-based, fluorescence, Alamar Blue, secondary assay (AID 2327); type: functional;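 also: NIH-3T3 mouse fibroblasts cultured with fluconazole at 8 µg/mL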
[19] = tested on: Streptococcus sp. 'group A'; assay: Streptococcus pyogenes SK(-)GAS viability under kanamycin – luminescence, BacTiterGlo, confirmation, counter-screen for streptokinase expression inhibitor project, dose response (AID 1900); type: functional, organism-based
Streptococcus = assay: GAS UMAA2166 growth inhibition – luminescence, BacTiterGlo, counter-screen for streptokinase expression inhibitor project, dose response (AID 1915); type: functional, organism-based;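 also: potency for reduction of bacterial viability or growth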
[20] = biological target: Heat shock protein HSP 90-alpha (Homo sapiens, UniProt P07900); type: functional, organism-based
[21] = fluconazole-exposed Candida albicans growth modulators – fluorescence, retest, confirmation (AID 2467); type: functional, cell-based
Genome polyprotein = Genome polyprotein (dengue virus type 2, UniProt P29990); assay: flavivirus cap methylation enzyme inhibition – biochemical, confirmation dose response, primary screen (AID 588689); type: functional
Activin receptor type-1 = biological target: T6, Activin receptor type-1 (Homo sapiens, UniProt Q04771); assay: Navigating the Kinome. Panel member name: ACVR1; type: functional
T6 sequence (Q04771 whole entry): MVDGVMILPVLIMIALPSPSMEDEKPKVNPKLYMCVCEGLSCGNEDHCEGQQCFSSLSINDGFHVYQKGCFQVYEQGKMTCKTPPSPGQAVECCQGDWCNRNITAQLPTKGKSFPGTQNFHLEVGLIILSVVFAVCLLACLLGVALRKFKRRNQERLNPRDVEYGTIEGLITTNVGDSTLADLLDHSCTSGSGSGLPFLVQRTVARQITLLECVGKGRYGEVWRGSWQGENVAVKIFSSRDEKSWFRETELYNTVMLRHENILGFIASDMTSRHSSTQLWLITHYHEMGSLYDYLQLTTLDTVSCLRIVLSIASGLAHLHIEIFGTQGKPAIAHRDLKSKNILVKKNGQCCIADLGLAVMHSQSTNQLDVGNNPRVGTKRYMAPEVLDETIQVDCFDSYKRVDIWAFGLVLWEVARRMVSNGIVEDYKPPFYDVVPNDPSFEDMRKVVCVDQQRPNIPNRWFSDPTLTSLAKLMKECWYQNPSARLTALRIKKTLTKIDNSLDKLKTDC

T3 sequence (P49327 whole entry): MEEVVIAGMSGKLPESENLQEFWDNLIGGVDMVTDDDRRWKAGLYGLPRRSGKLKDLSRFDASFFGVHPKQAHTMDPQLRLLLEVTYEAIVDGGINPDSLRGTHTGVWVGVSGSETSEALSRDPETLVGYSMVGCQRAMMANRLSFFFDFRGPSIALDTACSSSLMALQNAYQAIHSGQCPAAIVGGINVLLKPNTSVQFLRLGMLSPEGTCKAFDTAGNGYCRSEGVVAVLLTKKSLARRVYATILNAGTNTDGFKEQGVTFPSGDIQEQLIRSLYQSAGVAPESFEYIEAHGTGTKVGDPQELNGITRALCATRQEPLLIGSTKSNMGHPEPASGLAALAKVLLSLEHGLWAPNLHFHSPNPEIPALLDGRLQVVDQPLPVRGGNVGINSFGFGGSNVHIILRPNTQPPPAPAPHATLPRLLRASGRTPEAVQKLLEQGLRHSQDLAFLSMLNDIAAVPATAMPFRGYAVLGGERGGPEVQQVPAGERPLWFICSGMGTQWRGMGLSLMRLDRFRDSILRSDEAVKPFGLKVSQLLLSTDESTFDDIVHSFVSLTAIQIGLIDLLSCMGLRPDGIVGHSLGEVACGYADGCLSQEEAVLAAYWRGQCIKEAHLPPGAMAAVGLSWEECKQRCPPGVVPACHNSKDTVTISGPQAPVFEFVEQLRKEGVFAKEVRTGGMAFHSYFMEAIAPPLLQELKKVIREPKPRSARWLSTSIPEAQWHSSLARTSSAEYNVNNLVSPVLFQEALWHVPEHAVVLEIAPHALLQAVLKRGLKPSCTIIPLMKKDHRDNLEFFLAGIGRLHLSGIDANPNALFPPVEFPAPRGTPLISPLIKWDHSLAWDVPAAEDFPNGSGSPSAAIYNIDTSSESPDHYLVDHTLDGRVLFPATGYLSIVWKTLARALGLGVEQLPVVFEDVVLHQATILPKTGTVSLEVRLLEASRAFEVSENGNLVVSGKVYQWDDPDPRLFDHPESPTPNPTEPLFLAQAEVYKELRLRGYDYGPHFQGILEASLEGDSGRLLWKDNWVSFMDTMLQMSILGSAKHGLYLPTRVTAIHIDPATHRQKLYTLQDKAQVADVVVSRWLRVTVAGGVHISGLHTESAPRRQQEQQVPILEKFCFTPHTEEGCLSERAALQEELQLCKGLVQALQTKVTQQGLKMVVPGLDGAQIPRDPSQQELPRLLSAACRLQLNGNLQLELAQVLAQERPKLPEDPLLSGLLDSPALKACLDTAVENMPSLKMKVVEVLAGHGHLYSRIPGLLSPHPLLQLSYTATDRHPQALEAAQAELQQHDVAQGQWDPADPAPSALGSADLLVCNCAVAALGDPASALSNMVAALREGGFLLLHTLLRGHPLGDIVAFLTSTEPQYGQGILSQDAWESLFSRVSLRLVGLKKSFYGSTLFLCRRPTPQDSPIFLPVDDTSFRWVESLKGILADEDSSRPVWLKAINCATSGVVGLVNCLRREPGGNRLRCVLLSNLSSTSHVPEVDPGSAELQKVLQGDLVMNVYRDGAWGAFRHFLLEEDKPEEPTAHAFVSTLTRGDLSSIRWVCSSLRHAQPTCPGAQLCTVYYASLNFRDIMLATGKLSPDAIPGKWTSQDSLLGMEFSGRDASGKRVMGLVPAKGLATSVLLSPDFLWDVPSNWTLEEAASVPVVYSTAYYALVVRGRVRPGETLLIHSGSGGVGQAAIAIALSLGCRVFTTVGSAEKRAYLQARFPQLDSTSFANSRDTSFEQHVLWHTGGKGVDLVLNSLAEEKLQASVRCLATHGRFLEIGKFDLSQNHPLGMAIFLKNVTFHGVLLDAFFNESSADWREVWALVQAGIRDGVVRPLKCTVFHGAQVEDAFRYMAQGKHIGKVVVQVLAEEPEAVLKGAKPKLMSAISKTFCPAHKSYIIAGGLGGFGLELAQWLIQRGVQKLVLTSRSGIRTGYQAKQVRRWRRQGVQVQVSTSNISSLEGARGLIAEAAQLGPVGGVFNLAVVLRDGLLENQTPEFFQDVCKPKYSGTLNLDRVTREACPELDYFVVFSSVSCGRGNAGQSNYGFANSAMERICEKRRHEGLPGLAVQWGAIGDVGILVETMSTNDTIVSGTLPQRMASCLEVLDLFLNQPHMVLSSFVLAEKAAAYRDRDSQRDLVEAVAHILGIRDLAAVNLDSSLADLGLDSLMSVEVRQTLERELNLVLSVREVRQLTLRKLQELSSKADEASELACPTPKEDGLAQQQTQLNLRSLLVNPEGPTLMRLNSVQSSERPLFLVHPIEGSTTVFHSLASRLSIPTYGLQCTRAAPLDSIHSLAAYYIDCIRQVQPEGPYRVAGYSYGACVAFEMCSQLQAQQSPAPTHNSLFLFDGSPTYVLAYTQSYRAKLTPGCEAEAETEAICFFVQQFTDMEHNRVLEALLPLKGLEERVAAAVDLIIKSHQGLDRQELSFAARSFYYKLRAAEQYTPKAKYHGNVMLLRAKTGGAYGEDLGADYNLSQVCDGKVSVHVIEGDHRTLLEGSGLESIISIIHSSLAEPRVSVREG
Chain of Genome polyprotein (P29990 2492-3391 limits assumed): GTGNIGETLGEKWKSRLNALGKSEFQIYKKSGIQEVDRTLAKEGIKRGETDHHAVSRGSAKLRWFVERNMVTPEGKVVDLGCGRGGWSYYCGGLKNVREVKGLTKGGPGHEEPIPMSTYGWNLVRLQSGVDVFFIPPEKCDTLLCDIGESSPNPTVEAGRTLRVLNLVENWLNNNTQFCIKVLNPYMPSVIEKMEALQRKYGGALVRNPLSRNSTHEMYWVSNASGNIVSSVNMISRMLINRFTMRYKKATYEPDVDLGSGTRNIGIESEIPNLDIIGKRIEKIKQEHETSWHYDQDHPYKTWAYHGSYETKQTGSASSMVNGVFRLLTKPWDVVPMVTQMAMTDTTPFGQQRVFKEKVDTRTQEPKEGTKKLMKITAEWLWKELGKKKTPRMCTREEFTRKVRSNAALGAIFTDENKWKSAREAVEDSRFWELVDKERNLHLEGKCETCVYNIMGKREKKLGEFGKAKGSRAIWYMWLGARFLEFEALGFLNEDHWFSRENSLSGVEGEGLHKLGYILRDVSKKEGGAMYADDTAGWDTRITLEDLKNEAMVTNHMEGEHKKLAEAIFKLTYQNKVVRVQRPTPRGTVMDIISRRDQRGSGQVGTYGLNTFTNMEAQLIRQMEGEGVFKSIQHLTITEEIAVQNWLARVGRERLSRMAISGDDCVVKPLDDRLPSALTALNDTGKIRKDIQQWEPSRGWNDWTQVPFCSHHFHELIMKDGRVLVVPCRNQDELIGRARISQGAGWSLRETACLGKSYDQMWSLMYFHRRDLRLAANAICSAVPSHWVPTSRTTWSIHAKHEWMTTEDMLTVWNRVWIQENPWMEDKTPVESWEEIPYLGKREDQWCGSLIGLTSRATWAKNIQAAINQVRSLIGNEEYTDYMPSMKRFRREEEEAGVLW

Compound: Cn1c(/C=C/N(Cc2ccccc2)c2ccccc2)c([N+](=O)[O-])c(=O)n(C)c1=O
- IC50 [4]: 3.12 µM (active)
- IC50 (Fatty acid synthase [5]): 16.3 µM (active)
- IC50 [6]: 2.98 µM (active)
- IC50 (Fatty acid synthase [7]): 18.8 µM (active)

Compound: C=CCOc1cccc(C(=O)/C=C2/C(=O)Nc3ccccc32)c1
- EC50 [8]: 9.43 µM (inconclusive)
- EC50 (BJ [9]): 7.99 µM (active)
- IC50 [10]: 5.51 µM (active)
- EC50 (BJ [11]): 5.47 µM (inconclusive)
- EC50 (BJ [12]): 31.5 µM (inconclusive)

Compound: O=C(CSc1ccc(-c2nc3ccccc3[nH]2)cn1)Nc1ccc(S(=O)(=O)NC2CC2)cc1
- IC50 [13]: 3.58 µM (active)
- IC50 [14]: 4.53 µM (active)
- IC50 [15]: 83.3 µM (inactive)

Compound: O=C(NNC1=C(C(=O)C(F)(F)F)CCC1)c1ccc(Br)cc1
- IC50 [6]: 11.2 µM (active)
- EC50 [16]: > 180 µM (inactive)
- AC50 [17]: 3.16 µM (active)
- EC50 [18]: > 75 µM (inactive)
- EC50 [19]: 1.02 µM (active)
- EC50 (Streptococcus): 2.23 µM (active)
- AC50 [20]: 1.11 µM (active)
- EC50 [21]: 0.152 µM (active)

Compound: Cc1ccc(S(=O)(=O)Nc2ccc3ccccc3c2[N+](=O)[O-])cc1
- EC50 [1]: > 53 µM (inactive)
- IC50 (Genome polyprotein): 31.7 µM (active)
- IC50 [2]: 14.9 µM (active)
- AC50 [20]: 8.19 µM (active)
- IC50 [3]: 18.7 µM (active)

Compound: COc1cc(CCc2ccccc2)c(C(=O)O)c(O)c1CC=C(C)C [AMORFRUTIN A]
- EC50 [1]: 35.2 µM (active)
- IC50 [2]: 12.1 µM (active)
- IC50 [3]: 7.93 µM (active)

Compound: O=C(Nc1cccc(Cl)c1)Nc1ncc(CCNc2ncnc3ccsc23)s1 [SNS-314]
- Ki (Activin receptor type-1): > 3.98 µM (inactive)

More lines, now with the values ahead:

- EC50 [1]: > 53 µM (inactive)
- IC50 [2]: > 20 µM (inactive)
- IC50 [3]: 21.4 µM (active)
Compound: COc1ccc(-c2c(C)nn3c(N4CCCCCC4)cc(C)nc23)cc1OC

- IC50 [4]: 4.22 µM (active)
- IC50 [6]: 4.37 µM (active)
Compound: CC1CCCCC1NC(=O)c1cccc(S(=O)(=O)N2CCN(C)CC2)c1 (stereo not drawn)

- IC50 [4]: 7.13 µM (active)
- IC50 [6]: 7.57 µM (active)
Compound: O=C(NN1C(=O)/C(=C/c2cccs2)SC1=S)c1ccncc1

- IC50 [4]: 7.51 µM (active)
- IC50 [6]: 6.59 µM (active)
Compound: OCCN1CCN(c2ncnc3scc(-c4ccc(F)cc4)c23)CC1
